Experimental data from ChEMBL document CHEMBL3507680, “University of Dundee, Gates Library screen for HepG2 cell viability”.

Assay: Human HepG2 cell viability assay in 384 well format
Assay type: toxicity, cell-based
Parameters: dose 125 nL, time 70.5 hour; concentration not given beside the values
Settings: HepG2 cells, read-out: Inhibition
With `CC(C)c1cc2c(O)nc(CSCC(=O)O)nc2s1` the cytotoxicity at 70.5 h was -14.7%. For `COc1ccc(-c2noc(C(=O)NCCN3CCCCC3)n2)cc1OC`, the cytotoxicity at 70.5 h was 26.1%. For `CC(C)NC(=O)c1ccc2c(c1)nc1n2CCN(c2ccccc2)C1`, the cytotoxicity at 70.5 h was -11.7%. `O=c1ccc(-c2cccs2)nn1CN1CCN(Cc2ccccc2)CC1` gave a cytotoxicity at 70.5 h of -13.1%. `O=C1CC(c2ccccc2F)c2c(n3ccsc3nc2=O)N1` (configuration not stated) showed a cytotoxicity at 70.5 h of -14%. For `CCOc1ccc(C2CC(=O)Nc3c2c(=O)nc2sccn32)cc1` (configuration not stated), the cytotoxicity at 70.5 h was -31.7%. Work on `COc1cc(CC(O)CO)c(OC)c2c1OCO2` (configuration not stated) yielded a cytotoxicity at 70.5 h of 30.2%. `COC(=O)CNC(=O)CSCc1nc(O)c2c(C)c(C)sc2n1` showed a cytotoxicity at 70.5 h of -18.2%. Work on `CC1CCc2nc(O)c(C(=O)NCCN(C)C)cc2C1` (configuration not stated) yielded a cytotoxicity at 70.5 h of -18.1%. Work on `O=C1CSC(c2ccsc2)c2sccc2N1` (configuration not stated) yielded a cytotoxicity at 70.5 h of -18.3%. With `O=C(Cn1nc(-c2cccs2)ccc1=O)N1CCCCCC1` the cytotoxicity at 70.5 h was -24.9%. Work on `Cc1ccc(C)c(-c2csc(N)c2C#N)c1` yielded a cytotoxicity at 70.5 h of -3.45%. `O=c1[nH]c2c(c(=O)n1C1CCCCC1)CCC2Nc1ccccc1` (configuration not stated) showed a cytotoxicity at 70.5 h of 6.54%. With `CCCN1C(=O)CC(N2CCN(c3ccc(F)cc3)CC2)C1=O` (configuration not stated) the cytotoxicity at 70.5 h was 7.23%. For `Cc1cc2nc(SCC(=O)N3CCCC3)n(C(C)C)c(=O)c2[nH]1`, the cytotoxicity at 70.5 h was 14.9%. Compound `CCc1ccc(-n2c(=O)[nH]c3nc(N4CCSCC4)ncc3c2=O)cc1` has a cytotoxicity at 70.5 h of -8.65%. Compound `COc1cccc(N2CCN(CC(O)c3cc(C)ccc3C)CC2)c1` (configuration not stated) has a cytotoxicity at 70.5 h of 30.4%. `CC(C)n1c(=O)nc2n1C(=O)N(c1ccccc1)C2` showed a cytotoxicity at 70.5 h of -5.73%. For `CCn1nccc1CN(C)C(=O)Cn1nc(C)cc1C`, the cytotoxicity at 70.5 h was 16.1%. Compound `CCC(=O)N1CCCCC1c1nc(N(C)C)ncc1-c1cc(C)no1` (configuration not stated) has a cytotoxicity at 70.5 h of 1.06%. Work on `CN(C)C(=O)c1cccc(C2CNCCN2C)c1` (configuration not stated) yielded a cytotoxicity at 70.5 h of -4.31%. `CC(c1cc(O)nc(NC2CCCC2)n1)n1ncc2ccccc2c1=O` (configuration not stated) gave a cytotoxicity at 70.5 h of -8.36%. For `CN(CC1(C)COC1)C(=O)c1cc(-c2cnn(C)c2)nc2ccccc12`, the cytotoxicity at 70.5 h was -6.09%. In the case of `CNc1cccc(CC2COCCN(C(=O)c3cccnc3)C2)n1` (configuration not stated), the cytotoxicity at 70.5 h is reported as -3.83%. In the case of `O=C(c1cncs1)N1CCOCC(Cc2ccncn2)C1` (configuration not stated), the cytotoxicity at 70.5 h is reported as -7.66%. For `CC1(C(=O)N2CCN(c3cnccn3)CC2)CNCCO1` (configuration not stated), the cytotoxicity at 70.5 h was 28.1%. Compound `CCn1ncc(S(=O)(=O)N[C@@H]2CC[C@@H](n3ccnc3)[C@@H]2O)c1C` has a cytotoxicity at 70.5 h of -10.4%. `COCCNc1ncc(-c2cc(C)no2)c(-c2ccco2)n1` gave a cytotoxicity at 70.5 h of 8.77%. Compound `CCOCCCNc1ncc(-c2onc(C)c2C)c(-c2ccco2)n1` has a cytotoxicity at 70.5 h of -10.1%. `Cc1noc(-c2cnc(NCC3CCCO3)nc2-c2ccco2)c1C` (configuration not stated) showed a cytotoxicity at 70.5 h of -7.96%. `Cc1noc(-c2cnc(NC3CC3)nc2-c2ccco2)c1C` showed a cytotoxicity at 70.5 h of -14.9%. With `Cc1c[nH]c(C2CCCN2C(=O)CCc2c(C)n[nH]c2C)n1` (configuration not stated) the cytotoxicity at 70.5 h was -11.3%. With `CNC(=O)CCc1cc(C)nc(C2CCN(CC(=O)N(C)C)CC2)c1` the cytotoxicity at 70.5 h was -6.28%. `CN(C)c1cncc(C2CCCN(c3cnccn3)C2)n1` (configuration not stated) gave a cytotoxicity at 70.5 h of -6.42%. `c1cncc(CN2CCC(c3csc4nccn34)CC2)c1` showed a cytotoxicity at 70.5 h of -4.71%. For `O=S(=O)(N1CCOCC1)N1CCCC(c2ccccn2)C1` (configuration not stated), the cytotoxicity at 70.5 h was -8.61%. With `Cc1c[nH]nc1C1CCN(c2cnccn2)C1` (configuration not stated) the cytotoxicity at 70.5 h was 5.06%. With `CNC(=O)CCc1cc(C)nc(C2CCN(c3cnccn3)CC2)c1` the cytotoxicity at 70.5 h was 0.777%. Work on `CCN(CC)C(=O)CN1CCCC1c1nc(C)c2c(n1)N(C)C(=O)CC2` (configuration not stated) yielded a cytotoxicity at 70.5 h of -7.02%. With `O=C(C1CC1)N1C[C@H]2CCCN(S(=O)(=O)c3cccc(F)c3)[C@H]2C1` the cytotoxicity at 70.5 h was 3.8%. For `CSc1nnc(CNC(=O)Nc2ccccc2F)n1C`, the cytotoxicity at 70.5 h was -7.23%. For `CCn1c(SC)nnc1C1CCN(C(=O)N2CCCC2)CC1`, the cytotoxicity at 70.5 h was -4.95%. Work on `CSc1nnc(C2CCN(C(=O)N3CCOCC3)CC2)n1C(C)C` yielded a cytotoxicity at 70.5 h of 7.97%. For `CS(=O)(=O)c1cc(Cl)cnc1C1CCN(C(=O)C2CCCO2)CC1` (configuration not stated), the cytotoxicity at 70.5 h was -5.11%. Work on `Cn1cc(C2=NOC(C(=O)NC3(c4ccccc4)CCCC3)C2)cn1` (configuration not stated) yielded a cytotoxicity at 70.5 h of -3.59%. For `Cc1ccc(S(=O)(=O)N2CC[C@@H]3C[C@H](NC(=O)c4n[nH]cc4Cl)[C@@H]32)cc1`, the cytotoxicity at 70.5 h was -1.23%. `Cc1cnc(-c2nc(C3CCCN(Cc4cccs4)C3)no2)cn1` (configuration not stated) gave a cytotoxicity at 70.5 h of 23.7%. With `CC(C)C(=O)N1CCCC([C@@H]2C[C@H](C(F)F)n3ncnc3N2)C1` (some centres not stated) the cytotoxicity at 70.5 h was -3.96%. Compound `COCC(=O)N[C@@H]1CN(Cc2c[nH]nc2-c2cccs2)C[C@H]1O` has a cytotoxicity at 70.5 h of -2.93%. `COc1ccc(CC(=O)N2CCN(Cc3ccco3)C[C@@H]2C)cc1` showed a cytotoxicity at 70.5 h of -7.32%. `COc1ccc(CC(=O)N2CCN(Cc3ccco3)C[C@@H]2C)cc1OC` showed a cytotoxicity at 70.5 h of -3.94%. In the case of `COc1ccccc1-c1ccc(C2CCCN(C(C)=O)C2)nc1` (configuration not stated), the cytotoxicity at 70.5 h is reported as -0.199%. Work on `c1cc(C2CN(C3CCCC3)C2)n[nH]1` yielded a cytotoxicity at 70.5 h of -1.02%. For `CCN(Cc1ccncc1)c1cc(C2CCN2C(C)=O)nc(C)n1` (configuration not stated), the cytotoxicity at 70.5 h was -1.55%. For `CC(=O)N1CCC(C)(c2cc(C(=O)NCC(C)(C)C)nc(C)n2)CC1`, the cytotoxicity at 70.5 h was 9.62%. `Cc1nc(CN2CCCC(c3cnccn3)C2)cs1` (configuration not stated) showed a cytotoxicity at 70.5 h of -2.76%. `CC(C)c1cc(C(=O)N2CCC3(CCc4ccccc4C(=O)N3)C2)on1` (configuration not stated) showed a cytotoxicity at 70.5 h of -2.23%. Compound `CC(NC(=O)CCn1c(=O)oc2ccccc21)c1ccccn1` (configuration not stated) has a cytotoxicity at 70.5 h of -2.59%. Work on `Cc1cccc(-c2nccnc2C2CCCN(C)C2)c1C` (configuration not stated) yielded a cytotoxicity at 70.5 h of 18.2%. For `CC(=O)NCC(=O)N1CCCC1c1ccc(CN2CCOCC2)cn1` (configuration not stated), the cytotoxicity at 70.5 h was -4.76%. For `CC(=O)N1CCCC1c1ccc(CN2CCOCC2)cn1` (configuration not stated), the cytotoxicity at 70.5 h was 16.7%. `CC1(Cc2ccc(F)cc2)Cc2cc(C(=O)NCCO)ccc2O1` (configuration not stated) showed a cytotoxicity at 70.5 h of -0.493%. With `Cc1csc(NC(=O)C2(C)CN(C)CCO2)n1` (configuration not stated) the cytotoxicity at 70.5 h was 1.56%. Compound `O=C(c1cccnc1)N1CCCC(c2ccnc3nccn23)C1` (configuration not stated) has a cytotoxicity at 70.5 h of 7.06%. `Cc1c[nH]c(C2COCCN2C(=O)CCc2c(C)n[nH]c2C)n1` (configuration not stated) gave a cytotoxicity at 70.5 h of -9.97%. `Cc1cc(N2CCCC2c2cnccn2)ncn1` (configuration not stated) showed a cytotoxicity at 70.5 h of -5.35%. Work on `CCc1nnc(Nc2cccc(C3CCN(CCO)CC3)n2)s1` yielded a cytotoxicity at 70.5 h of 7.17%. For `Cc1c[nH]nc1C1CCN(S(=O)(=O)N(C)C)CC1`, the cytotoxicity at 70.5 h was 0.689%. `CN(C)C(=O)C1CN(Cc2cscn2)CCN(S(C)(=O)=O)C1` (configuration not stated) showed a cytotoxicity at 70.5 h of 7.94%. In the case of `CN1CCC(Cc2cc(Nc3ncccn3)ncn2)CC1`, the cytotoxicity at 70.5 h is reported as -4.15%. Work on `Cc1nn(C)cc1CN1CCC(C2Nc3ccccc3S(=O)(=O)N2)CC1` (configuration not stated) yielded a cytotoxicity at 70.5 h of -12.8%. `O=C(CCC1CCCC1)N1CCC(c2ncc3c(n2)CCNC3)CC1` showed a cytotoxicity at 70.5 h of 11.5%. `COCCNc1cc(C2CCCNC2)ccn1` (configuration not stated) gave a cytotoxicity at 70.5 h of -7.3%. For `CN(C)[C@@H]1CN(Cc2cccnc2)C[C@H]1c1cn(C)c2ccccc12`, the cytotoxicity at 70.5 h was -2.36%. For `Cc1nn(C)cc1S(=O)(=O)NCC(c1ccccc1)N1CCCCCC1` (configuration not stated), the cytotoxicity at 70.5 h was 17.9%. In the case of `Cc1cnc(-c2nc(C3CCCN(Cc4ccccc4C)C3)no2)cn1` (configuration not stated), the cytotoxicity at 70.5 h is reported as 21.7%. Work on `Cc1cccc(CNc2cc(C3CCCNC3)ccn2)n1` (configuration not stated) yielded a cytotoxicity at 70.5 h of -7.94%. With `Cc1noc2nc(C3CCN(CC4=CCCOC4)CC3)cc(C(F)F)c12` the cytotoxicity at 70.5 h was -7.18%. `Cc1ncc(CN2CCCC(O)(c3ccc(F)cc3)CC2)n1C` (configuration not stated) showed a cytotoxicity at 70.5 h of -5.42%. `Cc1nc[nH]c1CN(Cc1ccccc1F)C1CC(C)(C)NC(C)(C)C1` gave a cytotoxicity at 70.5 h of -2.5%. For `CC1(C)CC(N(Cc2ccccc2)Cc2ncc[nH]2)CC(C)(C)N1`, the cytotoxicity at 70.5 h was -1.78%. Compound `CC1(C)CC(N(Cc2ccccc2)Cc2c[nH]cn2)CC(C)(C)N1` has a cytotoxicity at 70.5 h of 2.11%.
